Results as given in US20060014811A1, “Medicament for treatment of cancer” (priority 2002, published 2006).

What was measured:
[1] = tested on: HepG2: Human liver cancer; experiment: Inhibitory test against cancer cell proliferation (1), MTS method; format: cell-based; conditions: 50% inhibitory concentration against proliferation, cultured for 3 days
Procedure: (§1) Cancer cells (Jurkat: Human T-cell leukemia, MIA PACA-2: Human pancreatic cancer, RD: Human rhabdomyoma, HepG2: Human liver cancer) were cultured for 3 days in the presence or absence of a test compound using RPMI1640 medium containing 10% bovine fetal serum or Dalbecco's Modified Eagle's Medium containing 10% FBS. The number of living cells was counted by MTS method, and amounts of cell proliferation were compared and inhibitory ratios were measured. In the table below, 50% inhibitory concentrations against the proliferation of each cancer cell are shown.

[2] = tested on: Jurkat: Human T-cell leukemia; experiment: as above; format: cell-based; conditions: 50% inhibitory concentration against proliferation, cultured for 3 days
Procedure: as §1

[3] = tested on: MIA PACA-2: Human pancreatic cancer; experiment: as above; format: cell-based; conditions: 50% inhibitory concentration against proliferation, cultured for 3 days
Procedure: as §1

[4] = tested on: RD: Human rhabdomyoma; experiment: as above; format: cell-based; conditions: 50% inhibitory concentration against proliferation, cultured for 3 days
Procedure: as §1

[5] = tested on: A549: human lung cancer; experiment: Inhibitory test against cancer cell proliferation (3); format: cell-based; conditions: Test Example 6, 50% inhibitory concentration against proliferation, similar operations to Test Example 1
Procedure: as §1
(§2) Similar operations to Test Example 1 were carried out using cancer cells (HepG2: human liver cancer, A^549: human lung cancer, MIA PACA-2: human pancreatic cancer). In the table below, 50% inhibitory concentrations against proliferation of each cancer cell are shown.

[6] = tested on: HepG2: Human liver cancer; experiment: as above; format: cell-based; conditions: Test Example 6, 50% inhibitory concentration against proliferation, similar operations to Test Example 1
Procedure: as §1, §2

[7] = tested on: MIA PACA-2: Human pancreatic cancer; experiment: as above; format: cell-based; conditions: Test Example 6, 50% inhibitory concentration against proliferation, similar operations to Test Example 1
Procedure: as §1, §2

[8] = tested on: B16 melanoma; experiment: Metastasis inhibitory test using mouse bearing B16 melanoma; format: in vivo, B6 mouse; parameters: key to Colony Formation (melanoma colonies in the lungs vs control): ±: Same as control; +: Inhibited; ++: Remarkably inhibited; +++: No Formation; conditions: 30 mg/kg intraperitoneal once a day for 5 weeks, B16 melanoma cells inoculated by tail vein
Procedure: B16 melanoma cells (5×10^5 cells/mouse) were inoculated from a tail vein of a B6 mouse of the same kind by intravenous injection, and a test substance was administered once a day for 5 weeks from the day of the inoculation by intraperitoneal injection. Then, the test animal was sacrificed and the lungs were removed. The number of colonies of melanoma in the lungs was compared with that in the control (test substance administered at 0 mg/kg).

Row | Structure (SMILES) | IC50 ([1]; Homo sapiens, HepG2, 72 h) [µM] | IC50 ([2]; Homo sapiens, Jurkat, 72 h) [µM] | IC50 ([3]; Homo sapiens, MIA PaCa-2, 72 h) [µM] | IC50 ([4]; Homo sapiens, 72 h) [µM] | IC50 ([5]; Homo sapiens, A549) [µM] | IC50 ([6]; Homo sapiens, HepG2) [µM] | IC50 ([7]; Homo sapiens, MIA PaCa-2) [µM] | other results
1 | O=C(Nc1cc(C(F)(F)F)cc(C(F)(F)F)c1)c1cc(Cl)ccc1O [compound 4, N-[3,5-bis(trifluoromethylphenyl)]-5-chloro-2-hydroxybenzamide] | – | – | – | – | – | – | – | IC50 [1]: 0.69 µM; IC50 [2]: 0.74 µM; IC50 [3]: 0.65 µM; IC50 [4]: 1.03 µM; IC50 [5]: 4.03 µM; IC50 [6]: 0.72 µM; IC50 [7]: 0.82 µM; Colony Formation (melanoma colonies in the lungs vs control) [8]: ++; Survival Ratio after 5 weeks(%) ([8]; control 50%): 100%
2 | CC(C)(C)c1ccc(O)c(C(=O)Nc2cc(C(F)(F)F)cc(C(F)(F)F)c2)c1 [compound 11, N-[3,5-Bis(trifluoromethyl)phenyl]-5-[(1,1-dimethyl)ethyl]-2-hydroxybenzamide] | 1.82 | 1.21 | 0.78 | 1.96 | – | – | – | –
3 | O=C(Nc1cc(C(F)(F)F)cc(C(F)(F)F)c1)c1cc(-n2cccc2)ccc1O [compound 27] | – | – | – | – | – | – | – | IC50 [1]: 1.96 µM; IC50 [2]: 1.2 µM; IC50 [3]: 1.19 µM; IC50 [4]: 1.26 µM
4 | O=C(Nc1cc(C(F)(F)F)cc(C(F)(F)F)c1)c1cc(C(=O)N2CCC(Cc3ccccc3)CC2)ccc1O [compound 40, N-[3,5-Bis(trifluoromethyl)phenyl]-2-hydroxy-5-(4-benzylpiperidine-1-carbonyl)benzamide] | – | – | – | – | – | – | – | melting point: 179 to 180 °C
5 | CC(=O)Oc1ccccc1C(=O)Nc1cc(Cl)cc(Cl)c1 [compound 120, 2-acetoxy-N-(3,5-dichlorophenyl)benzamide] | – | – | – | – | – | – | – | melting point: 218 to 219 °C
6 | CC(C)(C)C(=O)c1sc(NC(=O)c2cc(Cl)ccc2O)nc1C(C)(C)C [compound 199, 5-Chloro-N-{4-[(1,1-dimethyl)ethyl]-5-[(2,2-dimethyl)propionyl]thiazol-2-yl}-2-hydroxybenzamide] | 1.26 | 0.44 | 0.46 | 0.57 | 5.15 | 0.59 | 0.56 | –
7 | CC(C)(C)c1nc(NC(=O)c2cc(Br)ccc2O)sc1N1CCOCC1 [compound 205, 5-Bromo-N-{4-[(1,1-dimethyl)ethyl]-5-morpholinothiazol-2-yl}-2-hydroxybenzamide] | 3.5 | 1.89 | 1.45 | 1.94 | > 10 | 4.23 | > 10 | –
8 | CC(C)(C)c1nc(NC(=O)c2cc(Br)ccc2O)sc1N1CCN(c2ccccc2)CC1 [compound 207, 5-Bromo-N-{4-[(1,1-dimethyl)ethyl]-5-(4-phenylpiperazin-1-yl)thiazol-2-yl}-2-hydroxybenzamide] | 1.76 | 1.64 | 1.26 | 1.52 | – | – | – | –
9 | O=C(Nc1nc(-c2ccccc2)c(C(=O)c2ccccc2)s1)c1cc(Br)ccc1O [compound 215, 5-Bromo-N-(5-benzoyl-4-phenylthiazol-2-yl)-2-hydroxybenzamide] | – | – | – | – | 8.31 | 4.98 | 2.76 | –
